Experimental data: patent US20210137857A1, “A COMPOSITION FOR TREATMENT OR PREVENTION OF A NEURODEGENERATIVE DISEASE” (NEILOS S.R.L., priority 2017, published 2021)

Legend:
[1] = human, in vivo; cited from earlier work
[2] = Solubility tests on the test compounds; format: physicochemical

Row | Compound | patients treated with increase in serum transaminases [1] | patients with abdominal cramps, anorexia, nausea, vomiting and diarrhoea [1] | Solubility test RESULT [2]
1 | Nc1c2c(nc3ccccc13)CCCC2 [Tacrine] | more than 50% | more than a third of patients | 
2 | Amyloid β peptide 1-42 [Peptide β1-42] |  |  | POSITIVE
